Assay results published in publication PMC6792352, “Limited Chemical Structural Diversity Found to Modulate Thyroid Hormone Receptor in the Tox21 Chemical Library” (Environmental Health Perspectives, 2019).
Structures can show the parent of a compound that is named as a salt. Starred links: 1 amine or outer side, 2 acyl side, 3 side chain; linkers in the order of their positions; H or OH if unused. Positions of bridges follow the written chain, without caps; N, C: chain ends. Non-standard residues stand in square brackets, D forms with d. Residues, ends and D or L forms follow the SMILES beside them. *: point of attachment. X1 = NC1=N[C@@H]([C@H](N[*:1])C(=O)[*:2])C[C@H](O)N1; ΔAla(Z-3-ureido) = NC(=O)N/C=C(\N)C(=O)O; β3hOrn = NCCC[C@H](N)CC(=O)*; Dap = NC[C@H](N)C(=O)O

Assay: in vitro
Conditions: rat, gh3-tre-luc cells, AC50 (uM) modified / 1000
For `C=CC(=O)OC(C)(C)C` [tert-Butyl acrylate], the CC50 at 24 h was over 90 µM.
Molecule `Nc1nc(Cl)cc(Cl)n1` [2-Amino-4,6-dichloropyrimidine] has a CC50 at 24 h of over 90 µM.
For `CCCC1([C@H](O)C/C=C/[C@H]2[C@H](O)CC(=O)[C@@H]2CCCCCCC(=O)OC)CCC1` [(R)-Butaprost], the CC50 at 24 h was 32.9 µM.
`CC(C)C(C(=O)OC(C#N)c1cccc(Oc2ccccc2)c1)c1ccc(OC(F)F)cc1` (stereo not drawn) [Flucythrinate] showed a CC50 at 24 h of over 90 µM.
`CCCCCCCC[P+](CCCCCCCC)(CCCCCCCC)CCCCCCCC` [Tetraoctylphosphonium bromide] gave a CC50 at 24 h of 4.22 µM.
In the case of `CN1CC[C@H](c2c(O)cc(O)c3c(=O)cc(-c4ccccc4Cl)oc23)[C@H](O)C1` [Flavopiridol hydrochloride], the CC50 at 24 h is reported as 0.302 µM.
`Oc1ccc(Cc2ccc(O)cc2)cc1` [Bis(4-hydroxyphenyl)methane] gave a CC50 at 24 h of over 90 µM.
Work on `CCOc1ccccc1C(N)=O` [2-Ethoxybenzamide] yielded a CC50 at 24 h of over 90 µM.
With `O=C(NCCO[N+](=O)[O-])c1cccnc1` [Nicorandil] the CC50 at 24 h was over 50 µM.
Molecule `Cc1cc(C)c(NC(=O)CN(CC(=O)O)CC(=O)O)c(C)c1Br` [Mebrofenin] has a CC50 at 24 h of over 50 µM.
For `CC(C)(C)OO` [tert-Butyl hydroperoxide (70% Solution in Water)], the CC50 at 24 h was over 90 µM.
With `c1cc(C(c2ccc(OCC3CO3)cc2)c2ccc(OCC3CO3)cc2)ccc1OCC1CO1` (stereo not drawn) [2,2',2''-[Methanetriyltris(benzene-4,1-diyloxymethanediyl)]trioxirane] the CC50 at 24 h was 19.4 µM.
In the case of `CC1(C)S[C@@H]2[C@H](NC(=O)[C@H](NC(=O)N3CCNC3=O)c3ccccc3)C(=O)N2[C@H]1C(=O)O` [Azlocillin sodium], the CC50 at 24 h is reported as over 20 µM.
With `C=C1[C@@H]2CC[C@@H](C2)C1(C)C` [Camphene] the CC50 at 24 h was over 90 µM.
Work on `O=C1CCc2ccccc2O1` [3,4-Dihydrocoumarin] yielded a CC50 at 24 h of over 90 µM.
With `NCCC[C@H](N)CC(=O)N[C@H]1CNC(=O)[C@H]([C@H]2C[C@H](O)NC(N)=N2)NC(=O)/C(=C/NC(N)=O)NC(=O)[C@H](CO)NC(=O)[C@H](CO)NC1=O` [Viomycin sulfate] (β3hOrn-[Dap]SS[ΔAla(Z-3-ureido)][X1]; lactam 1-C) the CC50 at 24 h was over 50 µM.
For `CC(C)OC(=O)c1ccccc1` [Propan-2-yl benzoate], the CC50 at 24 h was over 100 µM.
`C=CC(C)(C)CC(=O)OC` [Methyl 3,3-dimethylpent-4-enoate] gave a CC50 at 24 h of over 90 µM.
`CCc1nnc(NS(=O)(=O)c2ccc(N)cc2)s1` [Sulfaethidole] showed a CC50 at 24 h of over 50 µM.
`COc1ccccc1N` [2-Methoxyaniline hydrochloride] gave a CC50 at 24 h of over 90 µM.
For `CCCCOC(=O)C(=O)Nc1cccc(-c2nnn[nH]2)c1` [Tazanolast], the CC50 at 24 h was over 50 µM.
Work on `COc1cc(C(C)(C)C)c(O)c(C(C)(C)C)c1` [2,6-Di-tert-butyl-4-methoxyphenol] yielded a CC50 at 24 h of 48.1 µM.
In the case of `CCCCCCCCCCCCCC[n+]1ccc(C)cc1` [Miripirium chloride], the CC50 at 24 h is reported as 7.5 µM.
In the case of `CCC(Cc1ccccc1)(C(=O)c1ccc(N2CCOCC2)cc1)N(C)C` (stereo not drawn) [2-Benzyl-2-(dimethylamino)-1-[4-(morpholin-4-yl)phenyl]butan-1-one], the CC50 at 24 h is reported as 68.2 µM.
`Cn1cnc2ncnc(N)c21` [7-Methyladenine] gave a CC50 at 24 h of over 50 µM.
For `O=C(OC(=O)c1ccccc1)c1ccccc1` [Benzoic anhydride], the CC50 at 24 h was over 90 µM.
`CC(C)COC(=O)CCCCC(=O)OCC(C)C` [Diisobutyl adipate] gave a CC50 at 24 h of over 90 µM.
`OCC(CO)n1cnc(-c2ccc(F)cc2)c1-c1ccnc(Oc2ccccc2)n1` [SB281832] gave a CC50 at 24 h of over 90 µM.
In the case of `CSc1c(Cl)c(Cl)c(Cl)c(Cl)c1Cl` [Pentachlorothioanisole], the CC50 at 24 h is reported as 81.6 µM.
In the case of `Cc1cc(C2CC2)nc(Nc2ccccc2)n1` [Cyprodinil], the CC50 at 24 h is reported as 74.9 µM.
Work on `CC1(C)[C@H]2CC[C@]1(C)C(=O)C2` [Camphor] yielded a CC50 at 24 h of over 90 µM.
With `CNN` [Methylhydrazine sulfate] the CC50 at 24 h was over 90 µM.
With `Cc1cc(O)cc(C)c1Cl` [4-Chloro-3,5-dimethylphenol] the CC50 at 24 h was over 90 µM.
For `O=C(c1ccc(F)cc1)C1CCN(CCn2c(=O)[nH]c3ccccc3c2=O)CC1` [Ketanserin], the CC50 at 24 h was over 50 µM.
For `CNS(=O)(=O)Cc1ccc2[nH]cc(CCN(C)C)c2c1` [Sumatriptan], the CC50 at 24 h was over 50 µM.
Molecule `CC1(C)[C@@H](O[C@H]2O[C@H](C(=O)O)[C@@H](O)[C@H](O)[C@H]2O[C@@H]2O[C@H](C(=O)O)[C@@H](O)[C@H](O)[C@H]2O)CC[C@]2(C)[C@H]3C(=O)C=C4[C@@H]5C[C@@](C)(C(=O)O)CC[C@]5(C)CC[C@@]4(C)[C@]3(C)CC[C@@H]12` [Ammonium glycyrrhizinate trihydrate] has a CC50 at 24 h of over 70 µM.
`CCCCCCCCCCCCCCCC(=O)O[C@@H]1CC(C)=C(/C=C/C(C)=C/C=C/C(C)=C/C=C/C=C(C)/C=C/C=C(C)/C=C/C2=C(C)C[C@@H](OC(=O)CCCCCCCCCCCCCCC)CC2(C)C)C(C)(C)C1` [Physalien] showed a CC50 at 24 h of over 50 µM.
In the case of `CC(C)c1ccc(C(=O)NC(=N)N)cc1S(C)(=O)=O` [Cariporide mesylate], the CC50 at 24 h is reported as over 70 µM.
`CCCCCCCCCCOCC(O)CN` (stereo not drawn) [Decominol hydrochloride] showed a CC50 at 24 h of 6.25 µM.
`CN(CCOc1ccc(NS(C)(=O)=O)cc1)CCc1ccc(NS(C)(=O)=O)cc1` [Dofetilide] gave a CC50 at 24 h of over 50 µM.
For `O=C1c2ccccc2C(=O)C1c1ccc(Cl)cc1` [Clorindione], the CC50 at 24 h was over 50 µM.
With `NCCNCCNCCN` [Triethylenetetramine] the CC50 at 24 h was over 90 µM.
Molecule `CCC(C=O)CC` [2-Ethylbutyraldehyde] has a CC50 at 24 h of over 90 µM.
`CC(C)NC(=O)NC(C)C` [1,3-Dipropan-2-ylurea] gave a CC50 at 24 h of over 90 µM.
For `CCN1CCN(c2cc(-c3ccc(F)cc3)c3c(n2)CCCCCC3)CC1` [Blonanserin], the CC50 at 24 h was 20.1 µM.
Work on `CC(C)(C)c1cc(Cc2cc(C(C)(C)C)c(O)c(C(C)(C)C)c2)cc(C(C)(C)C)c1O` [4,4'-Methylenebis(2,6-di-t-butylphenol)] yielded a CC50 at 24 h of over 90 µM.
With `C1CCN2C[C@@H]3C[C@@H](CN4CCCC[C@@H]34)[C@H]2C1` [Sparteine] the CC50 at 24 h was over 20 µM.
`CC#CCC(C)[C@H](O)/C=C/[C@@H]1[C@H]2C/C(=C/CCCC(=O)O)C[C@H]2C[C@H]1O` (stereo partly drawn) [Iloprost] gave a CC50 at 24 h of over 50 µM.
For `CN(C)[C@@H]1C(=O)C(C(=O)NCNCCCC[C@H](N)C(=O)O)=C(O)[C@@]2(O)C(=O)C3=C(O)c4c(O)cccc4[C@@](C)(O)[C@H]3C[C@@H]12` [Lymecycline], the CC50 at 24 h was over 20 µM.
With `COC(=O)C(C)=O` [Methylpyruvate] the CC50 at 24 h was over 90 µM.
For `CCCCCCCCCCCCCO` [1-Tridecanol], the CC50 at 24 h was over 90 µM.
`COC(OC)OC` [Trimethoxymethane] showed a CC50 at 24 h of over 90 µM.

Same assay, conditions: rat, gh3-tre-luc cells, AC50 (uM) modified / 1000, Tox21_110001=Tox21_111807; viability, 1 nM T3 present, 24 h
Work on `C[C@@H](Cc1ccccc1)N(C)C` [Dimetamfetamine] yielded a CC50 at 24 h of over 50 µM.

Same assay, conditions: rat, gh3-tre-luc cells, AC50 (uM) modified / 1000, Tox21_110001=Tox21_111946; viability, 1 nM T3 present, 24 h
Work on `COP(=S)(OC)Oc1ccc(S(=O)(=O)N(C)C)cc1` [Famphur] yielded a CC50 at 24 h of over 50 µM.

Same assay, conditions: rat, gh3-tre-luc cells, AC50 (uM) modified / 1000, Tox21_110001=Tox21_112150; viability, 1 nM T3 present, 24 h
For `CCS(=O)(=O)C(C)(C)S(=O)(=O)CC` [Sulfonmethane], the CC50 at 24 h was over 50 µM.

Same assay, conditions: rat, gh3-tre-luc cells, AC50 (uM) modified / 1000, Tox21_110001=Tox21_200566; viability, 1 nM T3 present, 24 h
`FC(Cl)(Cl)C(F)(Cl)Cl` [1,2-Difluoro-1,1,2,2-tetrachloroethane] showed a CC50 at 24 h of over 100 µM.

Same assay, conditions: rat, gh3-tre-luc cells, AC50 (uM) modified / 1000, Tox21_110001=Tox21_201334; viability, 1 nM T3 present, 24 h
With `CN(C)C(=O)Cl` [Dimethylcarbamoyl chloride] the CC50 at 24 h was over 90 µM.

Same assay, conditions: rat, gh3-tre-luc cells, AC50 (uM) modified / 1000, Tox21_110001=Tox21_201977; viability, 1 nM T3 present, 24 h
Molecule `NNc1ccccc1` [Phenylhydrazine] has a CC50 at 24 h of 71 µM.

Same assay, conditions: rat, gh3-tre-luc cells, AC50 (uM) modified / 1000, Tox21_110001=Tox21_202365; viability, 1 nM T3 present, 24 h
`O=S1OCC2C(CO1)C1(Cl)C(Cl)=C(Cl)C2(Cl)C1(Cl)Cl` (stereo not drawn) [Endosulfan] showed a CC50 at 24 h of 55.9 µM.

Same assay, conditions: rat, gh3-tre-luc cells, AC50 (uM) modified / 1000, Tox21_110001=Tox21_300657; viability, 1 nM T3 present, 24 h
Work on `O=S1OCC2C(CO1)C1(Cl)C(Cl)=C(Cl)C2(Cl)C1(Cl)Cl` (stereo not drawn) [Endosulfan] yielded a CC50 at 24 h of 37.5 µM.

Same assay, conditions: rat, gh3-tre-luc cells, AC50 (uM) modified / 1000, Tox21_110001=Tox21_301907; viability, 1 nM T3 present, 24 h
For `COP(=S)(OC)Oc1ccc(S(=O)(=O)N(C)C)cc1` [Famphur], the CC50 at 24 h was over 90 µM.

Same assay, conditions: rat, gh3-tre-luc cells, AC50 (uM) modified / 1000, Tox21_110001=Tox21_302421; viability, 1 nM T3 present, 24 h
For `CC(Cl)COP(=O)(OCC(C)Cl)OCC(C)Cl` (stereo not drawn) [Tris(2-chloropropyl) phosphate], the CC50 at 24 h was over 90 µM.

Same assay, conditions: rat, gh3-tre-luc cells, AC50 (uM) modified / 1000, Tox21_110001=Tox21_303018; viability, 1 nM T3 present, 24 h
`NNc1ccccc1` [Phenylhydrazine] showed a CC50 at 24 h of 42 µM.
